According to patent US10548911B2, “Small molecule anti-scarring agents” (UNIVERSITY OF ROCHESTER, priority 2014, dated 2020):

Key:
TGFβ signaling = assay: Chembridge collection screen with HEK293-Thy1 SBE-Luc cell line (normalized luciferase activity); format: cell-based, human; details: Chembridge collection re-screen
Source text: Using the recombinant HEK293-Thy1 SBE-Luc cell line described in the preceding Examples, the Chembridge collection of 20,000 small molecules was screened to identify other small molecules that inhibit TGFβ activity and, thus, may be novel anti-scarring compounds
100 top candidates from the initial screen were re-screened. Numbers indicate the Chembride molecule ID number. The second screen controls for toxicity and non-specific effects by using a constitutive luciferase to normalize results. This assay can be further used in a high throughput fashion to analyze newly derived compounds and monitor structure activity relationships (SAR) to discover new molecules that can serve as the basis for anti-scarring therapeutics.
The two-dimensional structures of the molecules are depicted in the left hand column. Chembridge collection IDs are listed in the second column and the additional columns denote the following (in order): the molecular name, the percent inhibition of the molecule using the screen (100% being a complete inhibition) (% Inhib.), and the internal key (key) for further identification in FIGS. 22 and 23.

[1] = test system: human orbital fibroblasts; assay: Myofibroblast formation assay (cell images) of Chembridge hits in human orbital fibroblasts; format: cell-based
Experimental: FIG. 22 is a panel of cell images showing efficacy of selected Chembridge hits in myofibroblast formation assays using human orbital fibroblasts. […] Key: SNC: salinomycin control; A1: 5255687; A2:5130037; A4:9040737; B3:9057423; C2:9018748; C3:9048694; C4:9022265.
(§1) Selected Chembridge hits were tested in myofibroblast formation assays using human orbital fibroblasts (FIG. 22) and human lung fibroblasts (FIG. 23).

human lung fibroblasts = assay: Myofibroblast formation assay (cell images) of Chembridge hits in human lung fibroblasts; format: cell-based
Experimental: FIG. 23 is a panel of cell images showing efficacy of selected Chembridge hits in myofibroblast formation assays using human lung fibroblasts. […] Key: SNC: salinomycin control; A1: 5255687; A2:5130037; A4:9040737; B3:9057423; C2:9018748; C3:9048694; C4:9022265.
as §1

**Q.** `C=CCOc1ccc(NC(=O)c2ccc(CN3CCOCC3)cc2)cc1` [compound 7991998, N-[4-(allyloxy)phenyl]-4-(4-morpholinomethyl)benzamide] was tested. Which “% Inhib. (percent inhibition of the molecule using the screen, 100% being a complete inhibition)” value (TGFβ signaling) did it give?
**A.** 60%

**Q.** `CC(C)(C)NS(=O)(=O)c1ccc(NC(=O)c2ccncc2)cc1` [compound 9038066, N-{4-[(tert-butylamino)sulfonyl]phenyl}isonicotinamide] was tested. Which “% Inhib. (percent inhibition of the molecule using the screen, 100% being a complete inhibition)” value (TGFβ signaling) did it give?
**A.** 54%

**Q.** `CNC(=O)c1ccccc1OCCOc1ccccc1` [compound 9057423, N-methyl-2-(2-phenoxyethoxy)benzamide] was tested. Which “% Inhib. (percent inhibition of the molecule using the screen, 100% being a complete inhibition)” value (TGFβ signaling) did it give?
**A.** 51%

**Q.** What about the “TGFβ induced myofibroblast formation (cell images)” value [1] of the same compound?
**A.** preventing TGFβ induced myofibroblast formation

**Q.** And the “cell death (cell images)” value [1]?
**A.** not causing cell death

**Q.** What about the “TGFβ induced myofibroblast formation (cell images)” value (human lung fibroblasts) of the same compound?
**A.** preventing TGFβ induced myofibroblast formation

**Q.** What about the “cell death (cell images)” value (human lung fibroblasts) of the same compound?
**A.** not causing cell death

**Q.** Which “% Inhib. (percent inhibition of the molecule using the screen, 100% being a complete inhibition)” value (TGFβ signaling) does the source give for `CCN(CC)C(=O)c1ccc(Cl)c(N)c1` [compound 9116592, 3-amino-4-chloro-N,N-diethylbenzamide] here?
**A.** 92%

**Q.** Which “% Inhib. (percent inhibition of the molecule using the screen, 100% being a complete inhibition)” value (TGFβ signaling) does the source give for `CCOC(=O)c1c(N)sc2c1CCC/C2=N/O` [compound 5130037, ethyl 2-amino-7-(hydroxyimino)-4,5,6,7-tetrahydro-1-benzothiophene-3-carboxylate] here?
**A.** 68%

**Q.** And the “TGFβ induced myofibroblast formation (cell images)” value [1]?
**A.** preventing TGFβ induced myofibroblast formation

**Q.** And the “cell death (cell images)” value [1]?
**A.** not causing cell death

**Q.** What about the “TGFβ induced myofibroblast formation (cell images)” value (human lung fibroblasts) of the same compound?
**A.** preventing TGFβ induced myofibroblast formation

**Q.** What about the “cell death (cell images)” value (human lung fibroblasts) of the same compound?
**A.** not causing cell death

**Q.** Which “% Inhib. (percent inhibition of the molecule using the screen, 100% being a complete inhibition)” value (TGFβ signaling) does the source give for `CC(Nc1ncnc2c1oc1ccccc12)c1ccccc1.Cl` (centres unmarked) [compound 9104696, N-(1-phenylethyl)[1]benzofuro[3,2-d]pyrimidin-4-amine hydrochloride] here?
**A.** 75%

**Q.** `CCOc1ccc(S(=O)(=O)NCc2ccncc2)c(C)c1C` [compound 9022265, 4-ethoxy-2,3-dimethyl-N-(4-pyridinylmethyl)benzenesulfonamide] was tested. Which “% Inhib. (percent inhibition of the molecule using the screen, 100% being a complete inhibition)” value (TGFβ signaling) did it give?
**A.** 84%

**Q.** What about the “TGFβ induced myofibroblast formation (cell images)” value [1] of the same compound?
**A.** preventing TGFβ induced myofibroblast formation

**Q.** What about the “cell death (cell images)” value [1] of the same compound?
**A.** not causing cell death

**Q.** What about the “TGFβ induced myofibroblast formation (cell images)” value (human lung fibroblasts) of the same compound?
**A.** preventing TGFβ induced myofibroblast formation

**Q.** What about the “cell death (cell images)” value (human lung fibroblasts) of the same compound?
**A.** not causing cell death

**Q.** With `O=S(=O)(NCc1ccncc1)c1cccc(F)c1` [compound 9019912, 3-fluoro-N-(4-pyridinylmethyl)benzenesulfonamide] as the compound, how does the “% Inhib. (percent inhibition of the molecule using the screen, 100% being a complete inhibition)” value (TGFβ signaling) read?
**A.** 58%

**Q.** With `OCc1ccc(Sc2ccc(Cl)cc2)o1` [compound 7586770, {5-[(4-chlorophenyl)thio]-2-furyl}methanol] as the compound, how does the “% Inhib. (percent inhibition of the molecule using the screen, 100% being a complete inhibition)” value (TGFβ signaling) read?
**A.** 80%

**Q.** With `Cc1cc(S(=O)(=O)NCc2ccncc2)ccc1F` [compound 9021391, 4-fluoro-3-methyl-N-(4-pyridinylmethyl)benzenesulfonamide] as the compound, how does the “% Inhib. (percent inhibition of the molecule using the screen, 100% being a complete inhibition)” value (TGFβ signaling) read?
**A.** 66%

**Q.** Which “% Inhib. (percent inhibition of the molecule using the screen, 100% being a complete inhibition)” value (TGFβ signaling) does the source give for `O=C(Nc1nc2ccccc2[nH]1)c1ccccc1Br` [compound 7263741, N-1H-benzimidazol-2-yl-2-bromobenzamide] here?
**A.** 46%

**Q.** How did the “% Inhib. (percent inhibition of the molecule using the screen, 100% being a complete inhibition)” value (TGFβ signaling) turn out when `Cc1ccc(C(C)NC(=O)c2c(Cl)cnn2C)cc1C` (centres unmarked) [compound 9043411, 4-chloro-N-[1-(3,4-dimethylphenyl)ethyl]-1-methyl-1H-pyrazole-5-carboxamide] was run?
**A.** 37%

**Q.** Which “% Inhib. (percent inhibition of the molecule using the screen, 100% being a complete inhibition)” value (TGFβ signaling) does the source give for `Cc1cc(C)c(C(=O)/C=C/c2ccccc2Cl)c(=O)[nH]1` [compound 5255687, 3-[3-(2-chlorophenyl)acryloyl]-4,6-dimethyl-2(1H)-pyridinone] here?
**A.** 70%

**Q.** And the “TGFβ induced myofibroblast formation (cell images)” value [1]?
**A.** preventing TGFβ induced myofibroblast formation

**Q.** And the “cell death (cell images)” value [1]?
**A.** not causing cell death

**Q.** What about the “TGFβ induced myofibroblast formation (cell images)” value (human lung fibroblasts) of the same compound?
**A.** preventing TGFβ induced myofibroblast formation

**Q.** And the “cell death (cell images)” value (human lung fibroblasts)?
**A.** not causing cell death

**Q.** Which “% Inhib. (percent inhibition of the molecule using the screen, 100% being a complete inhibition)” value (TGFβ signaling) does the source give for `Cc1nn2c(=O)cc(-c3ccccc3)[nH]c2c1-c1ccc(F)cc1` [compound 9040737, 3-(4-fluorophenyl)-2-methyl-5-phenylpyrazolo[1,5-a]pyrimidin-7(4H)-one] here?
**A.** 63%

**Q.** What about the “TGFβ induced myofibroblast formation (cell images)” value [1] of the same compound?
**A.** preventing TGFβ induced myofibroblast formation

**Q.** And the “cell death (cell images)” value [1]?
**A.** not causing cell death

**Q.** And the “TGFβ induced myofibroblast formation (cell images)” value (human lung fibroblasts)?
**A.** preventing TGFβ induced myofibroblast formation

**Q.** What about the “cell death (cell images)” value (human lung fibroblasts) of the same compound?
**A.** not causing cell death

**Q.** For `Cc1ccc(NC2=Nn3c(Cc4ccccc4)nnc3SC2)cc1` [compound 9016022, 3-benzyl-N-(4-methylphenyl)-7H-[1,2,4]triazolo[3,4-b][1,3,4]thiadiazin-6-amine], which “% Inhib. (percent inhibition of the molecule using the screen, 100% being a complete inhibition)” value (TGFβ signaling) is on record?
**A.** 46%

**Q.** For `CC1=Nc2ccccc2NC2=C1C(=O)CC(c1ccco1)C2` (centres unmarked) [compound 9025733, 3-(2-furyl)-11-methyl-2,3,4,5-tetrahydro-1H-dibenzo[b,e][1,4]diazepin-1-one], which “% Inhib. (percent inhibition of the molecule using the screen, 100% being a complete inhibition)” value (TGFβ signaling) is on record?
**A.** 84%

**Q.** Which “% Inhib. (percent inhibition of the molecule using the screen, 100% being a complete inhibition)” value (TGFβ signaling) does the source give for `COc1ccccc1NC(=O)C#Cc1ccccc1` [compound 9048694, N-(2-methoxyphenyl)-3-phenyl-2-propynamide] here?
**A.** 92%

**Q.** And the “TGFβ induced myofibroblast formation (cell images)” value [1]?
**A.** preventing TGFβ induced myofibroblast formation

**Q.** What about the “cell death (cell images)” value [1] of the same compound?
**A.** not causing cell death

**Q.** What about the “TGFβ induced myofibroblast formation (cell images)” value (human lung fibroblasts) of the same compound?
**A.** preventing TGFβ induced myofibroblast formation

**Q.** And the “cell death (cell images)” value (human lung fibroblasts)?
**A.** not causing cell death

**Q.** `Cc1nn2c(=O)cc(-c3ccc(Cl)cc3)[nH]c2c1-c1ccccc1` [compound 9080334, 5-(4-chlorophenyl)-2-methyl-3-phenylpyrazolo[1,5-a]pyrimidin-7(4H)-one] was tested. Which “% Inhib. (percent inhibition of the molecule using the screen, 100% being a complete inhibition)” value (TGFβ signaling) did it give?
**A.** 41%

**Q.** For `Cc1cc(Cl)c(Cl)cc1S(=O)(=O)NCc1ccncc1` [compound 9018748, 4,5-dichloro-2-methyl-N-(4-pyridinylmethyl)benzenesulfonamide], which “% Inhib. (percent inhibition of the molecule using the screen, 100% being a complete inhibition)” value (TGFβ signaling) is on record?
**A.** 95%

**Q.** And the “TGFβ induced myofibroblast formation (cell images)” value [1]?
**A.** preventing TGFβ induced myofibroblast formation

**Q.** What about the “cell death (cell images)” value [1] of the same compound?
**A.** not causing cell death

**Q.** And the “TGFβ induced myofibroblast formation (cell images)” value (human lung fibroblasts)?
**A.** preventing TGFβ induced myofibroblast formation

**Q.** What about the “cell death (cell images)” value (human lung fibroblasts) of the same compound?
**A.** not causing cell death
